The record followed here is ChEMBL document CHEMBL4138131, “Design, synthesis, kinetic mechanism and molecular docking studies of novel 1-pentanoyl-3-arylthioureas as inhibitors of mushroom tyrosinase and free radical scavengers” (Eur J Med Chem, 2017).

The target in series [1] is T1, Tyrosinase (Agaricus bisporus, UniProt O42713).
T1 sequence (O42713 whole entry): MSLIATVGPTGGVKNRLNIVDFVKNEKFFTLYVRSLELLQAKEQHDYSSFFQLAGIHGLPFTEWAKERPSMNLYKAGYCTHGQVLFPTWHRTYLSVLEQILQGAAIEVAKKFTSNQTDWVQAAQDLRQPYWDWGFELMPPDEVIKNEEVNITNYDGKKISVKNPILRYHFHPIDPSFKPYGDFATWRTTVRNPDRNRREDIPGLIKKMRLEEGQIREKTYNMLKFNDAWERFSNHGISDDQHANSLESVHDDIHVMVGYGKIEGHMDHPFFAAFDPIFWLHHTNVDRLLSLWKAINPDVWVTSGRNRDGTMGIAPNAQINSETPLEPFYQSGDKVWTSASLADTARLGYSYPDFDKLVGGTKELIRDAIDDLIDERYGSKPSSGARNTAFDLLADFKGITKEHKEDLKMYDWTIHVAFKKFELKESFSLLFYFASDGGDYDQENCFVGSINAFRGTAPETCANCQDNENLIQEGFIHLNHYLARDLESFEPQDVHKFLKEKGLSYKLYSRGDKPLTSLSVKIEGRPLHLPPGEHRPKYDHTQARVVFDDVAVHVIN
In words: Inhibition of mushroom tyrosinase using L-DOPA as substrate preincubated for 10 mins followed by substrate addition measured for 20 mins.

The nature of series [2]: Antioxidant activity assessed as DPPH radical scavenging activity at 100 ug/ml relative to control. The format is functional. (In general: DPPH is a stable violet radical that fades when it is reduced.)
Series [3] has as its target T2, Tyrosinase (Agaricus bisporus) (UniProt O42713).
T2 sequence (whole entry): T1 sequence (O42713 whole entry)
In words: Non-competitive inhibition of mushroom tyrosinase at 0.271 to 4.336 uM using L-DOPA as substrate preincubated for 10 mins followed by substrate addition measured up to 5 mins by Line-weaver Burk plot analysis.

For series [4], the target named is T2, Tyrosinase (Agaricus bisporus). In words: Potency index ratio of kojic acid IC50 to compound IC50 for inhibition of mushroom tyrosinase.
For series [5], the target named is T1, Tyrosinase. In words: Non-competitive inhibition of mushroom tyrosinase using L-DOPA as substrate preincubated for 10 mins followed by substrate addition measured up to 5 mins by Dixon plot analysis.
For series [6], the target named is T2, Tyrosinase (Agaricus bisporus). As to the kind of experiment: Irreversible inhibition of mushroom tyrosinase at 0.271 to 4.336 uM using L-DOPA as substrate preincubated for 10 mins followed by substrate addition measured up to 5 mins by Line-weaver Burk plot analysis.
The target is the same in series [7]. In words: Non-competitive inhibition of mushroom tyrosinase assessed as 1/Vmax at 0.271 uM using L-DOPA as substrate preincubated for 10 mins followed by substrate addition measured up to 5 mins by Line-weaver Burk plot analysis.
For series [8] the target is unchanged. In words: Non-competitive inhibition of mushroom tyrosinase assessed as 1/Vmax at 0.542 uM using L-DOPA as substrate preincubated for 10 mins followed by substrate addition measured up to 5 mins by Line-weaver Burk plot analysis.
Series [9] has the same target. In words: Non-competitive inhibition of mushroom tyrosinase assessed as 1/Vmax at 1.084 uM using L-DOPA as substrate preincubated for 10 mins followed by substrate addition measured up to 5 mins by Line-weaver Burk plot analysis.
For series [10] the target is unchanged. As to the kind of experiment: Non-competitive inhibition of mushroom tyrosinase assessed as 1/Vmax at 2.18 uM using L-DOPA as substrate preincubated for 10 mins followed by substrate addition measured up to 5 mins by Line-weaver Burk plot analysis.
The target is the same in series [11]. As to the kind of experiment: Non-competitive inhibition of mushroom tyrosinase assessed as 1/Vmax at 4.336 uM using L-DOPA as substrate preincubated for 10 mins followed by substrate addition measured up to 5 mins by Line-weaver Burk plot analysis.
Compound in series [12]: CCCCC(=O)NC(=S)Nc1ccc(OC)cc1
As to the kind of experiment: Non-competitive inhibition of mushroom tyrosinase assessed as substrate Km at 0.271 uM using L-DOPA as substrate preincubated for 10 mins followed by substrate addition measured up to 5 mins by Line-weaver Burk plot analysis. The following applies: Agaricus bisporus.

Compound in series [13]: CCCCC(=O)NC(=S)Nc1ccc(OC)cc1
In words: Non-competitive inhibition of mushroom tyrosinase assessed as substrate Km at 0.542 uM using L-DOPA as substrate preincubated for 10 mins followed by substrate addition measured up to 5 mins by Line-weaver Burk plot analysis. To be noted: Agaricus bisporus.

Compound in series [14]: CCCCC(=O)NC(=S)Nc1ccc(OC)cc1
As to the kind of experiment: Non-competitive inhibition of mushroom tyrosinase assessed as substrate Km at 1.084 uM using L-DOPA as substrate preincubated for 10 mins followed by substrate addition measured up to 5 mins by Line-weaver Burk plot analysis. The following applies: Agaricus bisporus.

Compound in series [15]: CCCCC(=O)NC(=S)Nc1ccc(OC)cc1
As to the kind of experiment: Non-competitive inhibition of mushroom tyrosinase assessed as substrate Km at 2.18 uM using L-DOPA as substrate preincubated for 10 mins followed by substrate addition measured up to 5 mins by Line-weaver Burk plot analysis. To be noted: Agaricus bisporus.

Compound in series [16]: CCCCC(=O)NC(=S)Nc1ccc(OC)cc1
In words: Non-competitive inhibition of mushroom tyrosinase assessed as substrate Km at 4.336 uM using L-DOPA as substrate preincubated for 10 mins followed by substrate addition measured up to 5 mins by Line-weaver Burk plot analysis. To be noted: Agaricus bisporus.

The source made the active and inactive calls. The calls are words filed in the database; no cut-off is given here.

For the molecule `CCCCC(=O)NC(=S)Nc1ccc(Cl)cc1`, it took 2.32 µM to reach half-maximal inhibition in series [1] (IC50). The outcome in [2] was inactive.
On to `CCCCC(=O)NC(=S)Nc1ccc(OC)cc1`, for which the inhibition result in series [3] and in series [6] was “Active” each time. Also, in series [1], it took 1.57 µM to reach half-maximal inhibition (IC50). Besides, in series [2], the Activity is 80%. Also, the Ratio IC50 in [4] was determined as 15. Also, in series [5], the affinity corresponds to a Ki of 1.1 µM. Also, the 1/Vmax in series [7] is 28600 deltaA/s; in [8], 52400 deltaA/s; in series [9], 90500 deltaA/s; in [10] it was 110000 deltaA/s; in [11], 186000 deltaA/s.
Take `CCCCC(=O)NC(=S)Nc1cccc(Cl)c1Cl`: in series [1], the IC50 (in general, the midpoint of a concentration-inhibition curve) was 7.75 µM. Besides, in series [2], the result was inactive.
On to `CCCCC(=O)NC(=S)Nc1ccc(Br)cc1F`, for which the IC50 in [1] was 6.46 µM. The outcome in series [2] was inactive.
Taken in the same sequence, the figures for `CCCCC(=O)NC(=S)Nc1ccc([N+](=O)[O-])cc1[N+](=O)[O-]` were 10.1 µM and “inactive”.
Molecule `CCCCC(=O)NC(=S)Nc1c(Br)cc(F)cc1Br` gave an IC50 in series [1] of 19.5 µM. Further, the result in series [2] was inactive.
`CCCCC(=O)NC(=S)Nc1c(C)cc(C)cc1C` had an IC50 in series [1] of 19.7 µM. For the same molecule, in series [2], the result was inactive.
The corresponding values for `CCCCC(=O)NC(=S)Nc1ccc([N+](=O)[O-])cc1` are 7.99 µM and “inactive”.
The molecule `CCCCC(=O)NC(=S)Nc1ccc(Br)cc1` came in with an IC50 in series [1] of 3.37 µM. The outcome in [2] was inactive.
`CCCCC(=O)NC(=S)Nc1cccc([N+](=O)[O-])c1` registered an IC50 in series [1] of 16.6 µM. Also, the outcome in [2] was inactive.

B1: Tyrosinase (Agaricus bisporus), O42713 (protein)
chain: T1 sequence (O42713 whole entry)
For the molecule B1, the Km in series [12], in series [13], in series [14], in series [15] and in series [16] was 389 µM throughout.
